ChEMBL document CHEMBL3860026, “Depsidones from Lichens as Natural Product Inhibitors of M-Phase Phosphoprotein 1, a Human Kinesin Required for Cytokinesis” (J Nat Prod, 2016)
In brackets after ≈: the same amount, converted by molar mass. Activity calls are given as the source filed them. No cut-off for these calls is given here.

Experiments:
[1] = biological target: T1, Kinesin-like protein KIF20B (Homo sapiens, UniProt Q96Q89); assay: Inhibition of microtubule-stimulated ATPase activity of N-terminal His6-tagged/SUMO-fused human MPP1 motor domain (57 to 491 residues) expressed in Escherichia coli BL21 CodonPlus by pyruvate kinase/lactate dehydrogenase-linked assay
T1 sequence (Q96Q89 whole entry, the tested form may be a part): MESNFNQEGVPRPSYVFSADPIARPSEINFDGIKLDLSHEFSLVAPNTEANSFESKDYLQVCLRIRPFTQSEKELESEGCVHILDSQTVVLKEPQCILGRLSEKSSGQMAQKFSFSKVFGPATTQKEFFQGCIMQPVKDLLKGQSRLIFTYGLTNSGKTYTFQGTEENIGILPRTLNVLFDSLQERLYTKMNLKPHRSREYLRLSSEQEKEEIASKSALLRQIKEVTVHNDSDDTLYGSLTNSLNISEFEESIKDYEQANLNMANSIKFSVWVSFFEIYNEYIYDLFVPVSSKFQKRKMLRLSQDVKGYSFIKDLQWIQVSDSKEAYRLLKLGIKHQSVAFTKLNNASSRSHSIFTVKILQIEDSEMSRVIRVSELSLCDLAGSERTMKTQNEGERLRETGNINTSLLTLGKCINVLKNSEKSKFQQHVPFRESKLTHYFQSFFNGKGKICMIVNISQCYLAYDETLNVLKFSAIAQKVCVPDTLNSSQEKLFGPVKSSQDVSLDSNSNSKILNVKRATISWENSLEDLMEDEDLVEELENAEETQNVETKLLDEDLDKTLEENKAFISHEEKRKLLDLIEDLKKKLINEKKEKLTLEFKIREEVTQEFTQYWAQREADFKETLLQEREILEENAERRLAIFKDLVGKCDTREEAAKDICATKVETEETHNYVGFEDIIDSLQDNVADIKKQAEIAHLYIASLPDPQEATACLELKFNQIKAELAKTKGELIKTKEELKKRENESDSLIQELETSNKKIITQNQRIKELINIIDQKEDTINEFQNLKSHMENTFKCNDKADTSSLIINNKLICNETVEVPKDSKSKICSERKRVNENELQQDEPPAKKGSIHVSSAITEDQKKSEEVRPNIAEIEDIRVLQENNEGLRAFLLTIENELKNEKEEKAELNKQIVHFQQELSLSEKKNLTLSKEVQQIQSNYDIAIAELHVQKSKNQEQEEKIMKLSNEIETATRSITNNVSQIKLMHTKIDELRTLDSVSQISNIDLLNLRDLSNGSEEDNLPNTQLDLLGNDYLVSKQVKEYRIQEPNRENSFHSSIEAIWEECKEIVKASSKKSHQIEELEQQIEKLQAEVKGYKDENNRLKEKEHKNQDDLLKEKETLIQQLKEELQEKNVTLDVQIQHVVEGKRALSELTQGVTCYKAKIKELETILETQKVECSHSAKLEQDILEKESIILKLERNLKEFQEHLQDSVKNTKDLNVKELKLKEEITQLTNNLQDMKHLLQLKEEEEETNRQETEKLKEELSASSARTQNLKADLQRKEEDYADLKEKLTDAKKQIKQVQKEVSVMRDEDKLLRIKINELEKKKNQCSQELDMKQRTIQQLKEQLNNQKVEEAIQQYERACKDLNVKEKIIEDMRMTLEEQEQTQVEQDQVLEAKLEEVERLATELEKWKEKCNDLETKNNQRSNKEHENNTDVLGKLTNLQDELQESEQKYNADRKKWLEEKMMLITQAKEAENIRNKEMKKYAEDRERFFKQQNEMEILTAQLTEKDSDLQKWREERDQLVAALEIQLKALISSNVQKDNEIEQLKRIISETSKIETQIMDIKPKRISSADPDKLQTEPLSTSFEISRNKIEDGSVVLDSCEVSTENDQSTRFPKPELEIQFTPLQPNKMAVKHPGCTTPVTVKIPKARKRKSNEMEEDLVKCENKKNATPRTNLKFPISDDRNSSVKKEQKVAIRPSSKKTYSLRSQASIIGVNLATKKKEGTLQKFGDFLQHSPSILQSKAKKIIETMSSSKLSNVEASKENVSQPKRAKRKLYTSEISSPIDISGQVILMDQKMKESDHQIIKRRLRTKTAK

[2] = biological target: T1, Kinesin-like protein KIF20B; assay: Inhibition of basal ATPase activity of N-terminal His6-tagged/SUMO-fused human MPP1 motor domain (57 to 491 residues) expressed in Escherichia coli BL21 CodonPlus in presence of 0.1% Tween-20 by pyruvate kinase/lactate dehydrogenase-linked assay
[3] = biological target: T1, Kinesin-like protein KIF20B; assay: Inhibition of basal ATPase activity of N-terminal His6-tagged/SUMO-fused human MPP1 motor domain (2 to 477 residues) expressed in Escherichia coli BL21 CodonPlus in presence of 0.1% Tween-20 by pyruvate kinase/lactate dehydrogenase-linked assay
[4] = biological target: Centromere-associated protein E (Homo sapiens, UniProt Q02224); assay: Inhibition of basal ATPase activity of human CENP-E by pyruvate kinase/lactate dehydrogenase-linked assay
Sequence of Centromere-associated protein E (Q02224 whole entry): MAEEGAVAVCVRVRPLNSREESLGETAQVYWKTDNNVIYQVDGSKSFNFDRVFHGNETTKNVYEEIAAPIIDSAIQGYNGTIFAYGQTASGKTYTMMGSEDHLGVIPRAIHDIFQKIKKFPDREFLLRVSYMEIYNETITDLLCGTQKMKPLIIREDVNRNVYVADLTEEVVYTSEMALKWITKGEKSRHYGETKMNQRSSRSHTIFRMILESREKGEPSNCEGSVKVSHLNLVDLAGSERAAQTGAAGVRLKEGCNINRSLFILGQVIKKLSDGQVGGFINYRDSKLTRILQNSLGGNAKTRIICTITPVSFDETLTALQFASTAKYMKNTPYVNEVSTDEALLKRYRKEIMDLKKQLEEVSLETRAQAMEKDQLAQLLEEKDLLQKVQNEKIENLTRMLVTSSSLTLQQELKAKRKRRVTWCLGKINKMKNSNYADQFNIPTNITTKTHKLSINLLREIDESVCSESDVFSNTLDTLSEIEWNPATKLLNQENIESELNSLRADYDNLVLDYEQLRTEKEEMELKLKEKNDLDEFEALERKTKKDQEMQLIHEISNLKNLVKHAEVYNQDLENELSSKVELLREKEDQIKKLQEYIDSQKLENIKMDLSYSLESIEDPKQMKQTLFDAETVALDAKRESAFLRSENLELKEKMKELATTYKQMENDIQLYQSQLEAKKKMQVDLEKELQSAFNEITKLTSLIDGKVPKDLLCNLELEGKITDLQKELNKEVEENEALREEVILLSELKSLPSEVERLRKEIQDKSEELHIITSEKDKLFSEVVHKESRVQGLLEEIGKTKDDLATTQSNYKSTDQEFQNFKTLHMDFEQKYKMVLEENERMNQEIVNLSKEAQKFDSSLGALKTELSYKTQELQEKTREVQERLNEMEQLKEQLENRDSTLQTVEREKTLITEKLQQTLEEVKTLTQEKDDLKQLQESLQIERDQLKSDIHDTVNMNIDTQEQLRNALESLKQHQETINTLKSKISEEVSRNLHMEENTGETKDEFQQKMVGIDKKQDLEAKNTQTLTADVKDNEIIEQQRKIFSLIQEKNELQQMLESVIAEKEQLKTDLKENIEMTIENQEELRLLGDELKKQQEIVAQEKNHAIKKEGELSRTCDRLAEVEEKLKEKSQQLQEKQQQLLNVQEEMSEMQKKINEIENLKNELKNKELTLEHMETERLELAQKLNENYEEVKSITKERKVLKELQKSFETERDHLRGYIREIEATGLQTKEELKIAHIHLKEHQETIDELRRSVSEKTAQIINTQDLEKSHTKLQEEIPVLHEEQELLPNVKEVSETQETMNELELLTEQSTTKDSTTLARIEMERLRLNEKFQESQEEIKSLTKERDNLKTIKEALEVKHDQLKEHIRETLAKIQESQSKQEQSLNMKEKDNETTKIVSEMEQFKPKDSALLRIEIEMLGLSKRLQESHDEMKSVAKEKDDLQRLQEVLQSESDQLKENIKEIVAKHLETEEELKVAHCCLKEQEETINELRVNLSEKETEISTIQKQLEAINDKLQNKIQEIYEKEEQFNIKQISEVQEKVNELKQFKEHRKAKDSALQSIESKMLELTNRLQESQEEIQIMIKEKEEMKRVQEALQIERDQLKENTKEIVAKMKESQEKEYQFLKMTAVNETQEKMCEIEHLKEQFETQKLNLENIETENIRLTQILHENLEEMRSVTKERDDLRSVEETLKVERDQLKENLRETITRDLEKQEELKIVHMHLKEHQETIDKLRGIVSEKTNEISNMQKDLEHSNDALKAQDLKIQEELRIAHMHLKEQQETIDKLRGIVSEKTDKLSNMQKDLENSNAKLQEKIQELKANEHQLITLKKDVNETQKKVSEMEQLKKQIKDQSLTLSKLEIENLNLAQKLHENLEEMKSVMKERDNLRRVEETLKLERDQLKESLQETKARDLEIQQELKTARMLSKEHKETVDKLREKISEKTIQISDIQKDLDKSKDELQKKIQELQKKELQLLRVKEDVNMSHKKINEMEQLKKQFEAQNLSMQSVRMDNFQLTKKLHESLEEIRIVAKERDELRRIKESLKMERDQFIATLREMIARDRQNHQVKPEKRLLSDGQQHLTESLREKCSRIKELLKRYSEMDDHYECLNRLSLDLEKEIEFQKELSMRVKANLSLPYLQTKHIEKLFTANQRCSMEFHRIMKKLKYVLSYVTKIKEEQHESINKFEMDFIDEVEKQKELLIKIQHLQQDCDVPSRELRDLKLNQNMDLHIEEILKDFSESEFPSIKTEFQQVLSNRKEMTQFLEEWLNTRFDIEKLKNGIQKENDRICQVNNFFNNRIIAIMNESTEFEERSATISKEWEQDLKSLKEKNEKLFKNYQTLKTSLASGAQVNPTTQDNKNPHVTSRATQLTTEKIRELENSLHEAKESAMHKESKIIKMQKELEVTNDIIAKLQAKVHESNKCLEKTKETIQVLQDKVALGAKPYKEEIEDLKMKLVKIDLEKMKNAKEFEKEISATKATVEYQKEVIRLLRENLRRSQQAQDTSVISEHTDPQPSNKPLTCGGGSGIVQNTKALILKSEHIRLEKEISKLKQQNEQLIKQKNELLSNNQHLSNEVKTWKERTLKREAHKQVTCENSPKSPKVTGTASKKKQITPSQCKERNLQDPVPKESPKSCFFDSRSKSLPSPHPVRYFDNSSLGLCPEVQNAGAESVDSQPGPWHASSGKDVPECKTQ

[5] = biological target: T2, Kinesin-like protein KIF9 (Homo sapiens) (UniProt Q9HAQ2); assay: Inhibition of basal ATPase activity of human Kif9 at 200 uM by pyruvate kinase/lactate dehydrogenase-linked assay
T2 sequence (whole entry): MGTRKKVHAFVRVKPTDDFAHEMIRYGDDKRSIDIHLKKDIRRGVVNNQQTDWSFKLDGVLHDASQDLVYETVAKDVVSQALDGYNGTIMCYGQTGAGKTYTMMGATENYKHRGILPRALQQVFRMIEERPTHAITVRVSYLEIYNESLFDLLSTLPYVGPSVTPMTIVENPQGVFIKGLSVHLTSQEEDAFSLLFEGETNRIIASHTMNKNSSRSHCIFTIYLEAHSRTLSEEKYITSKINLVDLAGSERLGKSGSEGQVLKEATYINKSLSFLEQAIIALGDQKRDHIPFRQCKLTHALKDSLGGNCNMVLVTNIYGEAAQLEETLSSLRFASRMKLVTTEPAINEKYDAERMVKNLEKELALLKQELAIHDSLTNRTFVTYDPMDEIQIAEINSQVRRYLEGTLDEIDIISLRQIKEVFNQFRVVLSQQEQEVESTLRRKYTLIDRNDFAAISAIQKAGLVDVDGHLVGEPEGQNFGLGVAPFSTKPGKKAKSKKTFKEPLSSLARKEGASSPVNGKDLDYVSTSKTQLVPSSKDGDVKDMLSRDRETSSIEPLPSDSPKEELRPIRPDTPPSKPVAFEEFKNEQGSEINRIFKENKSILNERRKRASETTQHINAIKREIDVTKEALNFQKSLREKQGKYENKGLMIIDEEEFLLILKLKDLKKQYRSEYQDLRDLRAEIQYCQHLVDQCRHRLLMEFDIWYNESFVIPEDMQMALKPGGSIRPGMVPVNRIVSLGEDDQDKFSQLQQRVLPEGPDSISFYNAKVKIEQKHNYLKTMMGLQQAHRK

[6] = biological target: T3, Chromosome-associated kinesin KIF4A (Homo sapiens) (UniProt O95239); assay: Inhibition of basal ATPase activity of human Kif4A at 200 uM by pyruvate kinase/lactate dehydrogenase-linked assay
T3 sequence (whole entry): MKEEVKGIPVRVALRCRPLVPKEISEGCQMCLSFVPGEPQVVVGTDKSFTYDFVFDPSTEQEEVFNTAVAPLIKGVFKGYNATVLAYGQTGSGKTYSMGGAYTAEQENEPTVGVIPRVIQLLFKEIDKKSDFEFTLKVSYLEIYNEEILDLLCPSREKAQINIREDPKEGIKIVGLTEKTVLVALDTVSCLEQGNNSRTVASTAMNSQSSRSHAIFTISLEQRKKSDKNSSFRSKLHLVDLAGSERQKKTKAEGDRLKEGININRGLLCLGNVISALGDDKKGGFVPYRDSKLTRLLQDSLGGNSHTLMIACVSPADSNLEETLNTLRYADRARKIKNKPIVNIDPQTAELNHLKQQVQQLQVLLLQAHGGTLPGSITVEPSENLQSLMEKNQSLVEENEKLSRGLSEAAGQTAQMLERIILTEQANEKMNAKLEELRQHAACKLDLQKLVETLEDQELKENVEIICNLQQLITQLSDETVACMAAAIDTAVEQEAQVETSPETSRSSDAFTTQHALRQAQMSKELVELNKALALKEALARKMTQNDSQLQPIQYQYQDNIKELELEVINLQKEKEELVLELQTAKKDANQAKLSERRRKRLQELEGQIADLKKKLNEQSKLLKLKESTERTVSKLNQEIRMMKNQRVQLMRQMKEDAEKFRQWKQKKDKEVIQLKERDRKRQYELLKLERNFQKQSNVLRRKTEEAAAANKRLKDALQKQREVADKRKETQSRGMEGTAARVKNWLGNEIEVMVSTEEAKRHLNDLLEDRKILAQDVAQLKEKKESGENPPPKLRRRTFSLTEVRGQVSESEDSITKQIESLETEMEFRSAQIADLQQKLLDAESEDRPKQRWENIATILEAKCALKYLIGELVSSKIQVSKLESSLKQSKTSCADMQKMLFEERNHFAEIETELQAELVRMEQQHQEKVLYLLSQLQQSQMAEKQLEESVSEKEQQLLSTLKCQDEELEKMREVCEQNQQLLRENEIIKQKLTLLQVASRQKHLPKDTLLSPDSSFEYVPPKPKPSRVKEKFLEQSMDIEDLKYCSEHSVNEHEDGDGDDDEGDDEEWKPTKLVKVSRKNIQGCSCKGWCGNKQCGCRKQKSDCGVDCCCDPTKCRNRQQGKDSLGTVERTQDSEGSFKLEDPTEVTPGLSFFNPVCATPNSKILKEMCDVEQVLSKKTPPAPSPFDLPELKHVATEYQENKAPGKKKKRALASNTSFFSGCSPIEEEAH

[7] = Solubility of the compound in phosphate buffered saline at pH 2 after 2 hrs by turbidimetric method; assay type: physicochemical
[8] = Solubility of the compound in phosphate buffered saline at pH 7.4 after 2 hrs by turbidimetric method; assay type: physicochemical
[9] = Intrinsic clearance in mouse liver microsomes assessed per mg of protein at 3 uM after 5 to 60 mins by LC-MS/MS method; assay type: ADME; conditions: read-out: CLH
[10] = Half life in human liver microsomes at 3 uM by LC-MS/MS method; assay type: ADME
[11] = biological target: T1, Kinesin-like protein KIF20B; conditions: 1 to 20 uM

IC50 [1]: 5.8 µM
Imax [1]: 90%
inhibition [2]: Active
inhibition [3]: Active
IC50 [4]: 29.6 µM
inhibition [5]: 40%
inhibition [6]: 40%
solubility kinetic at 2 h [7]: 3.75 µM (≈ 1.76 µg/mL)
solubility kinetic at 2 h [8]: > 100 µM
microsomal CLint at 3 µM [9]: 61.6 µL/min/mg
half-life at 3 µM [10]: 4.5 min
inhibition [11]: Active
SMILES: CCCCCC(=O)Cc1cc(O)cc2c1C(=O)Oc1cc(O)c(C(=O)O)c(CCCCC)c1O2 [PHYSODIC ACID]
